Like-named read-outs stand apart in the source and are kept apart here.
Experiments:
[1] = tested on: methylphenidate; assay: Methylphenidate antagonism in mice; assay type: in vivo; conditions: Mus musculus, ip
Procedure: Methylphenidate antagonism (ED50 mg/kg i.p.)
(§1) Perspex observation cages without bottom and lid, consisting of 5 sections each measuring 12×25×30 cm.
3×2 mice are used for each dose level. Two or 24 hours after injection of test substance, methylphenidate, 60 mg/kg, is injected s.c. After administration of methylphenidate the mice are placed in the observation cages, 2 in each cage, where they remain for exactly 1 hour. The cages were placed on corrugated paper, the corrugations facing upwards. It is examined whether the mice have been biting the corrugated paper or not. […] If one or more of the control pairs have not been biting, the test has to be repeated on a new set of mice.
The result is stated in fractions: 0/3, 1/3, 2/3 and 3/3 where 0, 1, 2 and 3 are the number of pairs which have not been biting on receipt of the dose in question.

[2] = in vivo; design: species or system rats; conditions: for Ratio catalep./Amphet.: catalepsy ED50 / amphetamine antagonism ED50; for ED50: rat, in vivo, po
Procedure: A vertical wire netting (50 cm×49 cm). The meshes (openings) of the netting are square (1 cm×1 cm). The wire diameter is 2 mm.
The animals are labeled and used in groups of five. The test substance is administered orally (p.o) at 4 dose levels selected from the fixed dose scale.
The animals are placed in the middle of the vertical wire netting 60, 120, 180, 240, 300 and 360 minutes after administration of the test compound. The animals are considered cataleptic when they remain immobile during a period of 15 seconds.
This cataleptic reaction is designated +. If the rats are "atonic" and passively slide down the wire mesh they are considered not cataleptic. If the animals climb up and down the wire mesh they are nor cataleptic.
In both situations the designation--is used.

[3] = tested on: amphetamine; assay: Amphetamine antagonism in rats; assay type: in vivo; conditions: Rattus norvegicus, po, read-out: Amphetamine antag. ED50 p.o.
Procedure: Amphetamine antagonism (ED50 mg/kg i.p.)
as §1
The test substance is given p.o. in a reasonable dose based on the determined LD50. Two or 24 hours later an intravaneous injection of amphetamine sulphate 13.6 mg/kg (10 mg/kg amphetamine base) is given, after which the rats are placed individually in the cages. The cages are placed on white corrugated paper. Five rats are used for each dose level. Observations are made after 55 minutes and 65 minutes-observation time: 1 minute. The animals are observed for stereotypy (movements of the head, compulsive gnawing). […] If the compound has full antagonistic effect another group of rats is used at a lower dose. […] The result is stated as fractions: 0/5, 1/5, 2/5, 3/5, 4/5 and 5/5, where 0, 1, 2, 3, 4 and 5 indicate the number of rats which have not shown stereotypy at the dose in question. The results are calculated as ED50 in mg/kg.

[4] = in vivo
[5] = Mouse grid shock (analgesia); assay type: in vivo; conditions: mice, minimal effective dose, in mg/kg
Procedure: The mouse grid consists of a perspex cage with wire grid bottom and a perspex lid, on which is placed a microphone sensitive to the frequency of a mouse squeak. A stimulator with motordriven potentiometer applies a sequence of square wave impulses of continuously increasing milliamperage to the grid. Frequency of impulses 20 cycles/sec., duration 5 msec. Milliamperage is recorded on a digital amperemeter connected to the stimulator. Activation of the microphone by a mouse-squeak cuts off the current and the final milliamperage appears on the meter.
Five mice are used for each dose level. Each mouse serves as its own control.
Prior to the administration of test substance the animals are placed on the grid one at a time, and the pain threshold is determined by increasing the current intensity until the mouse squeaks. The pain threshold may be read on the milliamperemeter. Fifteen minutes and 30 minutes after administration of test substance the mice are tested again and the pain thresholds recorded.
Analgesic effect is present, when the pain threshold is increased over the pre-dosing value (control value). The results are stated as % increase in pain threshold calculated on the basis of the control value.
The registration can also be done as an on-line procedure. In this case the punching instruction and punching cards will be provided automatically and the results will be registered as a minimal effective dose (MED) determined after van der Waerdens X-test.

[6] = 2 h, read-out: MePh antag. ED50 2 hr i.p., mice, test substance i.p., 2 hr before methylphenidate 60 mg/kg s.c.
[7] = rats, p.o., strongest effect within first 6 hours, read-out: Catalep. (catalepsy wire mesh, rat, max, ED50)
[8] = rats, p.o., amphetamine 10 mg/kg base i.v.
[9] = read-out: MePh antag. ED50 2 hr i.p., mice, test substance i.p., 2 hr before methylphenidate 60 mg/kg s.c.

SMILES	ED50 [1, 6] [mg/kg]	Ratio catalep./Amphet. [2]	ED50 [2, 7] [mg/kg]	ED50 [3, 8] [mg/kg]	LD50 ([4]; iv) [mg/kg]	MED Grid Shock [5]	ED50 ([2]; Catalep. (catalepsy wire mesh, rat, max, ED50)) [mg/kg]	ED50 [1, 9] [mg/kg]	ED50 [3] [mg/kg]	LD50 ([4]; ip) [mg/kg]
COc1ccc2c(c1)C(N1CCN(CCO)CC1)CC2c1ccc(F)cc1 (stereo not drawn) [Lu 18-006]	8.6	0.7	12	16.6	113	5				
OCCN1CCN(C2CC(c3ccc(F)cc3)c3ccc(C(F)(F)F)cc32)CC1 (stereo not drawn) [Lu 18-012]	0.03	2		0.16	56	0.6	0.3			
CC(C)c1ccc2c(c1)C(N1CCN(CCO)CC1)CC2c1ccc(F)cc1 (stereo not drawn) [Lu 18-020]	4.4	0.8	7.8	9.4	57	5				
CN1CCN(C2CC(c3ccc(F)cc3)c3ccc(C(F)(F)F)cc32)CC1 (stereo not drawn) [Lu 18-023]	1.1	2	0.4	0.2	94	1.25				
CN1CCN(C2CC(c3ccc(F)cc3)c3ccc(S(C)(=O)=O)cc32)CC1 (stereo not drawn) [Lu 18-040]	8.3	0.8	10	12	130	> 20				
OCCCN1CCN(C2CC(c3ccc(F)cc3)c3ccc(C(F)(F)F)cc32)CC1 (stereo not drawn) [Lu 18-048]	0.12	0.4	0.07	0.16	57	1.3				
CC(C)N1CCN(C2CC(c3ccc(F)cc3)c3ccc(C(F)(F)F)cc32)CC1 (stereo not drawn) [Lu 18-050]	0.44	2.4	0.52	0.22	57	10				
OCC(O)CN1CCN(C2CC(c3ccc(F)cc3)c3ccc(C(F)(F)F)cc32)CC1 (stereo not drawn) [Lu 18-063]	0.4	3.2	0.38	0.12	57	1.25				
CN(C)CCCN1c2ccccc2Sc2ccc(Cl)cc21 [chlorpromazine, reference compound]		1.19	25		56.5	5		5.6	21	
OCCN1CCN(CCCN2c3ccccc3Sc3ccc(C(F)(F)F)cc32)CC1 [fluphenazine, reference compound]	0.04	0.43	0.3	0.7	98	2.5-5				
O=C(CCCN1CCC(O)(c2ccc(Cl)cc2)CC1)c1ccc(F)cc1 [haloperidol, reference compound]		1.0	0.4			< 5		0.04	0.4	226

From US4443448A, “Indane derivatives, pharmaceutical compositions thereof and method of preparation” (priority 1980, dated 1984)
